In PMC7395062, “Multiparametric assessment of mitochondrial respiratory inhibition in HepG2 and RPTEC/TERT1 cells using a panel of mitochondrial targeting agrochemicals” (Archives of Toxicology, 2020):
pEC50: −log10 of the molar value. Read-outs that look alike come from different tables or passages of the source.

Key:
Type in all cases: cell-based, human
HepG2 cells = experiment: Resazurin reduction viability assay, 2D HepG2
Method: (§1) The HepG2 cell line, a human hepatocellular carcinoma, was obtained from ATCC (American Type Culture Collection, Wesel, Germany). […] Cells were maintained at 37 °C in a 5% CO2 humidified atmosphere, fed every 2 to 3 days and passaged at approximately 80% confluence. […] For galactose experiments, the medium was refreshed 24 h before exposure with galactose-containing medium. […] Culture medium was refreshed every 3–4 days and the culture was maintained for 21 days prior to dosing.
(§2) The conversion of resazurin to fluorescent resorufin was measured in a plate reader at excitation/emission 540/590 nm.
(§3) All results are average of 2–3 independent experiments.

[1] = system: CII/CIII (succinate dehydrogenase / cytochrome bc1 complex); settings: permeabilised HepG2; sequential substrates/inhibitors
Method: The test compound is injected and OCR is measured. […] OCR is measured for the second time. […] A third and final OCR measurement is conducted.
Compounds were injected sequentially and OCR was measured twice. […] ETC inhibition is determined in decreased OCR.
as §3

HepG2 3D spheroids = experiment: Cell death assay (PI staining) in 3D cultured HepG2 spheroids; settings: for Effect of repeated exposure (5 × 24 h vs 1 × 24 h) on toxic sensitivity: 3D HepG2 spheroids; for pEC50: Homo sapiens, HepG2, 24 h
Method: as §1
At day 21, the culture medium was replaced by fresh medium containing the compounds in the desired concentration. […] For the repeat exposure scenario, Hoechst was added to the 4th exposure and PI to the 5th exposure. […] The confocal imaging was performed using a Nikon TiE2000 with perfect focus system and XY-stage (Nikon, Amsterdam, The Netherlands). Quantification of the Hoechst and PI signal localization was performed using Nis Elements Analysis software. First, a max projection was created of all z-stacks. The overlapping areas between Hoechst and PI in the projection picture were assessed based on a manually curated intensity threshold. Finally, the fraction of spheroids positive for PI staining was determined.
as §3

RPTEC/TERT1 cells = experiment: Resazurin reduction viability assay, RPTEC/TERT1; settings: RPTEC/TERT1
Method: These cells were obtained under licence from Evercyte GmBH, Vienna Austria. […] For experiments, cells were plated in a required format plate, allowed to become contact-inhibited and fed 24 h prior to treatment exposure. For experiments in galactose condition, cells were fed 24 h prior to experiment with culture medium (custom made DMEM/F12, PromoCell) in which 5 mM glucose was replaced with 5 mM galactose (Merck, G5388).
as §2, §3

[2] = read-out: EC50 cell death 3D HepG2, 1 × 24 h exposure
[3] = read-out: EC50 cell death 3D HepG2, 5 × 24 h exposure

SMILES	Statistical significance, Viability Galactose settings Resazurin (HepG2 cells; HepG2, galactose, d = 0.016 µM)	Statistical significance, Viability Galactose settings Resazurin (HepG2 cells; HepG2, galactose, e = 0.08 µM)	Statistical significance, Viability Galactose settings Resazurin (HepG2 cells; HepG2, galactose, f = 0.4 µM)	Statistical significance, Viability Galactose settings Resazurin (HepG2 cells; HepG2, galactose, g = 7 µM)	Statistical significance, Viability Galactose settings Resazurin (HepG2 cells; HepG2, galactose, h = 10 µM)	ETC-complex specificity pattern (CII/CIII) [1]	Effect of repeated exposure (5 × 24 h vs 1 × 24 h) on toxic sensitivity (HepG2 3D spheroids)	pEC50 (HepG2 3D spheroids; [2])	pEC50 (HepG2 3D spheroids; [3])	Statistical significance, Viability Galactose settings Resazurin (RPTEC/TERT1 cells; e = 0.08 µM)	Statistical significance, Viability Galactose settings Resazurin (RPTEC/TERT1 cells; f = 0.4 µM)	Statistical significance, Viability Galactose settings Resazurin (RPTEC/TERT1 cells; g = 7 µM)	Statistical significance, Viability Galactose settings Resazurin (RPTEC/TERT1 cells; h = 10 µM)	Statistical significance, Viability Glucose settings Resazurin (RPTEC/TERT1 cells; g = 7 µM)	Statistical significance, Viability Glucose settings Resazurin (RPTEC/TERT1 cells; h = 10 µM)	Statistical significance, Viability Galactose settings Resazurin (HepG2 cells)	Statistical significance, Viability Glucose settings Resazurin (HepG2 cells; HepG2, glucose, h = 10 µM)	Statistical significance, Viability Glucose settings Resazurin (RPTEC/TERT1 cells; f = 0.4 µM)	Effect on resazurin reduction / viability (HepG2 cells; up to 10 µM, 24 h exposure, glucose)
CCCCCC[C@H]1C(=O)O[C@H](C)[C@H](NC(=O)c2cccc(NC=O)c2O)C(=O)O[C@@H](C)[C@@H]1OC(=O)CC(C)C [Antimycin A]	* (*p < 0.05 (Tables 3, 4))	* (*p < 0.05 (Tables 3, 4))	* (*p < 0.05 (Tables 3, 4))	* (*p < 0.05 (Tables 3, 4))	* (*p < 0.05 (Tables 3, 4))	conformed to this pattern	increased the toxic sensitivity	< 5.00	7.13	* (*p < 0.05 (Tables 3, 4))	* (*p < 0.05 (Tables 3, 4))	* (*p < 0.05 (Tables 3, 4))	* (*p < 0.05 (Tables 3, 4))	* (*p < 0.05 (Tables 3, 4))	* (*p < 0.05 (Tables 3, 4))	–	–	–	–
CO/C=C(/C(=O)OC)c1ccccc1Oc1cc(Oc2ccccc2C#N)ncn1 [Azoxystrobin]	–	–	–	* (*p < 0.05 (Tables 3, 4))	* (*p < 0.05 (Tables 3, 4))	only partially rescued with ascorbate/TMPD	–	–	–	–	–	* (*p < 0.05 (Tables 3, 4))	* (*p < 0.05 (Tables 3, 4))	–	* (*p < 0.05 (Tables 3, 4))	–	–	–	–
CSC1=N[C@@](C)(c2ccccc2)C(=O)N1Nc1ccccc1 [Fenamidone]	–	–	–	–	* (*p < 0.05 (Tables 3, 4))	only partially rescued with ascorbate/TMPD	–	–	–	–	–	–	–	–	–	–	–	–	–
CC(C)(C)c1ccc(CCOc2ncnc3ccccc23)cc1 [Fenazaquin]	–	* (*p < 0.05 (Tables 3, 4))	* (*p < 0.05 (Tables 3, 4))	* (*p < 0.05 (Tables 3, 4))	* (*p < 0.05 (Tables 3, 4))	–	–	–	–	–	–	–	–	* (*p < 0.05 (Tables 3, 4))	* (*p < 0.05 (Tables 3, 4))	–	–	–	–
CO/N=C(/C(=O)OC)c1ccccc1COc1ccccc1C [Kresoxim-methyl]	–	–	–	–	–	–	–	–	–	–	–	–	–	–	–	* (key: *p < 0.05 (Tables 3, 4))	–	–	–
CO/C=C(/C(=O)OC)c1ccccc1COc1cccc(C(F)(F)F)n1 [Picoxystrobin]	–	–	* (*p < 0.05 (Tables 3, 4))	* (*p < 0.05 (Tables 3, 4))	* (*p < 0.05 (Tables 3, 4))	conformed to this pattern	increased the toxic sensitivity	–	–	–	–	* (*p < 0.05 (Tables 3, 4))	* (*p < 0.05 (Tables 3, 4))	–	* (*p < 0.05 (Tables 3, 4))	–	–	–	–
COC(=O)N(OC)c1ccccc1COc1ccn(-c2ccc(Cl)cc2)n1 [Pyraclostrobin]	–	–	* (*p < 0.05 (Tables 3, 4))	* (*p < 0.05 (Tables 3, 4))	* (*p < 0.05 (Tables 3, 4))	conformed to this pattern	increased the toxic sensitivity	–	–	–	* (*p < 0.05 (Tables 3, 4))	* (*p < 0.05 (Tables 3, 4))	* (*p < 0.05 (Tables 3, 4))	* (*p < 0.05 (Tables 3, 4))	* (*p < 0.05 (Tables 3, 4))	–	* (*p < 0.05 (Tables 3, 4))	–	–
CC(C)(C)c1ccc(CSc2cnn(C(C)(C)C)c(=O)c2Cl)cc1 [Pyridaben]	* (*p < 0.05 (Tables 3, 4))	* (*p < 0.05 (Tables 3, 4))	* (*p < 0.05 (Tables 3, 4))	* (*p < 0.05 (Tables 3, 4))	* (*p < 0.05 (Tables 3, 4))	–	–	–	–	–	–	–	–	* (*p < 0.05 (Tables 3, 4))	* (*p < 0.05 (Tables 3, 4))	–	–	* (*p < 0.05 (Tables 3, 4))	–
CCOCCc1ccc(OCCN=c2[nH]cnc(CC)c2Cl)c(C)c1C [Pyrimidifen]	* (*p < 0.05 (Tables 3, 4))	* (*p < 0.05 (Tables 3, 4))	* (*p < 0.05 (Tables 3, 4))	* (*p < 0.05 (Tables 3, 4))	* (*p < 0.05 (Tables 3, 4))	–	–	–	–	–	–	–	–	* (*p < 0.05 (Tables 3, 4))	* (*p < 0.05 (Tables 3, 4))	–	–	–	–
C=C(C)[C@H]1Cc2c(ccc3c2O[C@@H]2COc4cc(OC)c(OC)cc4[C@@H]2C3=O)O1 [Rotenone]	–	–	–	–	–	–	–	6.90	7.55	–	–	–	–	–	–	–	–	–	mildly affected the viability
CCc1nn(C)c(C(=O)NCc2ccc(C(C)(C)C)cc2)c1Cl [Tebufenpyrad]	–	* (*p < 0.05 (Tables 3, 4))	* (*p < 0.05 (Tables 3, 4))	* (*p < 0.05 (Tables 3, 4))	* (*p < 0.05 (Tables 3, 4))	–	increased the toxic sensitivity	–	–	–	–	–	–	* (*p < 0.05 (Tables 3, 4))	* (*p < 0.05 (Tables 3, 4))	–	* (*p < 0.05 (Tables 3, 4))	–	–
CON=C(C(=O)OC)c1ccccc1CON=C(C)c1cccc(C(F)(F)F)c1 [Trifloxystrobin]	–	–	* (*p < 0.05 (Tables 3, 4))	* (*p < 0.05 (Tables 3, 4))	* (*p < 0.05 (Tables 3, 4))	conformed to this pattern	–	–	–	–	–	–	–	–	* (*p < 0.05 (Tables 3, 4))	–	–	–	–
